Assay results taken from US8846933B2, “N-link hydroxamic acid derivatives useful as antibacterial agents” (Pfizer Inc., priority 2009, dated 2014).

Key:
Assay type in all cases: cell-based
[1] = test system: Escherichia coli EC-1: VOGEL, mouse virulent; assay: MIC determination (CLSI), strain EC-1; conditions: Escherichia coli EC-1, VOGEL, mouse virulent; unit assumed
In short: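 The mouse-virulent VOGEL isolate of E. coli, EC-1, served as test organism. Minimum inhibitory concentration was measured by CLSI dilution methodology (M7-A7; M100-S18 standards).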

[2] = test system: Pseudomonas aeruginosa UI-18: Wild-type (PA-7); assay: MIC determination (CLSI), strain PA-7; conditions: Pseudomonas aeruginosa UI-18, wild-type; unit assumed
In short: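 Strain tested was P. aeruginosa UI-18, a wild-type isolate labelled PA-7. Minimum inhibitory concentrations followed CLSI dilution methodology for aerobically growing bacteria (M7-A7, M100-S18).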

[3] = test system: Acinetobacter baumanii/haemolyticus: Multidrug-resistant clinical isolate (AB-3167); assay: MIC determination (CLSI), strain AB-3167; conditions: unit assumed
Procedure: The in vitro antibacterial activity of compounds described in the Examples was evaluated by minimum inhibitory concentration (MIC) testing according to Clinical and Laboratory Standards Institute (CLSI, formerly NCCLS) guidelines. See: Clinical and Laboratory Standards Institute. Methods for Dilution Antimicrobial Susceptibility Tests for Bacteria that Grow Aerobically; Approved Standard-Seventh Edition. CLSI document M7-A7 [ISBN 1-56238-587-9]. Clinical and Laboratory Standards Institute, 940 West Valley Road, Suite 1400, Wayne, Pa. 19087-1898 USA, 2006; also Clinical and Laboratory Standards Institute. Performance Standards for Antimicrobial Susceptibility Testing; Eighteenth Informational Supplement. CLSI document M100-S18 [ISBN1-56238-653-0].Clinical and Laboratory Standards Institute.
The following bacterial strains were used in these MIC determinations:
2) Acinetobacter baumanii/haemolyticus: Multidrug-resistant clinical isolate labeled as AB-3167 in Tables 4 and 5;

Row | Compound | EC-1 (MIC) [1] | PA-7 (MIC) [2] | AB-3167 (MIC) [3]
1 | C[C@@](CCn1ccc(-c2ccc(OC[C@H]3CC[C@@H](O)CC3)cc2)cc1=O)(C(=O)NO)S(C)(=O)=O [Example 8, (2R)-N-hydroxy-4-[4-{4-[(cis-4-hydroxycyclohexyl)methoxy]phenyl}-2-oxopyridin-1(2H)-yl]-2-methyl-2-(methylsulfonyl)butanamide] | 0.5 mg/L | 1 mg/L | > 64 mg/L
2 | C[C@@](CCn1ccc(-c2ccc(OC[C@H]3CC[C@H](O)CC3)cc2)cc1=O)(C(=O)NO)S(C)(=O)=O [Example 9, (2R)-N-hydroxy-4-[4-{4-[(trans-4-hydroxycyclohexyl)methoxy]phenyl}-2-oxopyridin-1(2H)-yl]-2-methyl-2-(methylsulfonyl)butanamide] | 0.25 mg/L | 1 mg/L | 32 mg/L
3 | C[C@@](CCn1ccc(-c2ccc(OC[C@H]3CC[C@H](O)CC3)cc2F)cc1=O)(C(=O)NO)S(C)(=O)=O [Example 10, (2R)-4-[4-{2-fluoro-4-[(trans-4-hydroxycyclohexyl)methoxy]phenyl}-2-oxopyridin-1(2H)-yl]-N-hydroxy-2-methyl-2-(methylsulfonyl) butanamide] | 0.25 mg/L | 1 mg/L | > 64 mg/L
4 | CC1(O)CCC(Oc2ccc(-c3ccn(CC[C@](C)(C(=O)NO)S(C)(=O)=O)c(=O)c3)cc2)CC1 (stereo partly drawn) [Example 10-A, (2R)-N-hydroxy-4-[4-{4-[(4-hydroxy-4-methylcyclohexyl)oxy]phenyl}-2-oxopyridin-1(2H)-yl]-2-methyl-2-(methylsulfonyl)butanamide] | 0.25 mg/L | 1 mg/L | > 64 mg/L
5 | CC1(O)CC(COc2ccc(-c3ccn(CC[C@](C)(C(=O)NO)S(C)(=O)=O)c(=O)c3)cc2)C1 (stereo partly drawn) [Example 10-B, (2R)-N-hydroxy-4-[4-{4-[(3-hydroxy-3-methylcyclobutyl)methoxy]phenyl}-2-oxopyridin-1(2H)-yl]-2-methyl-2-(methylsulfonyl)butanamide] | 0.5 mg/L | 1 mg/L | > 64 mg/L
6 | C[C@@](CCn1ccc(-c2ccc(OCCCC#N)cc2)cc1=O)(C(=O)NO)S(C)(=O)=O [Example 10-C, (2R)-4-{4-[4-(3-cyanopropoxy)phenyl]-2-oxopyridin-1(2H)-yl}-N-hydroxy-2-methyl-2-(methylsulfonyl)butanamide] | 0.5 mg/L | 1 mg/L | > 64 mg/L
7 | C[C@@](CCn1ccc(-c2ccc(OCC3CC(CO)C3)cc2)cc1=O)(C(=O)NO)S(C)(=O)=O (stereo partly drawn) [Example 10-D, (2R)-N-hydroxy-4-[4-(4-{[3-(hydroxymethyl)cyclobutyl]methoxy}phenyl)-2-oxopyridin-1(2H)-yl]-2-methyl-2-(methylsulfonyl)butanamide] | 0.25 mg/L | 1 mg/L | > 64 mg/L
8 | CC(C)(O)CCCOc1ccc(-c2ccn(CCC(C)(C(=O)NO)S(C)(=O)=O)c(=O)c2)cc1 (stereo not drawn) [Example 10-E, N-hydroxy-4-[4-{4-[(4-hydroxy-4-methylpentyl)oxy]phenyl}-2-oxopyridin-1(2H)-yl]-2-methyl-2-(methylsulfonyl)butanamide] | 0.5 mg/L | 2 mg/L | > 64 mg/L
9 | CC(CCn1ccc(-c2ccc(OC3CC(CO)C3)cc2)cc1=O)(C(=O)NO)S(C)(=O)=O (stereo not drawn) [Example 10-F, N-hydroxy-4-[4-(4-{[3-(hydroxymethyl)cyclobutyl]oxy}phenyl)-2-oxopyridin-1(2H)-yl]-2-methyl-2-(methylsulfonyl)butanamide] | 0.5 mg/L | 2 mg/L | 64 mg/L
10 | CC1(O)CCC(Oc2ccc(-c3ccn(CC[C@](C)(C(=O)NO)S(C)(=O)=O)c(=O)c3)cc2)CC1 (stereo partly drawn) [Example 10-G, (2R)-N-hydroxy-4-[4-{4-[(4-hydroxy-4-methylcyclohexyl)oxy]phenyl}-2-oxopyridin-1(2H)-yl]-2-methyl-2-(methylsulfonyl)butanamide] | 0.5 mg/L | 2 mg/L | 64 mg/L
11 | CC(C)(O)C1CC(Oc2ccc(-c3ccn(CC[C@](C)(C(=O)NO)S(C)(=O)=O)c(=O)c3)cc2)C1 (stereo partly drawn) [Example 10-H, (2R)-N-hydroxy-4-[4-(4-{[3-(1-hydroxy-1-methylethyl)cyclobutyl]oxy}phenyl)-2-oxopyridin-1(2H)-yl]-2-methyl-2-(methylsulfonyl)butanamide] | 1 mg/L | 2 mg/L | > 64 mg/L
12 | CC1(O)CCC(Oc2ccc(-c3ccn(CC[C@](C)(C(=O)NO)S(C)(=O)=O)c(=O)c3)cc2F)CC1 (stereo partly drawn) [Example 10-I, (2R)-4-[4-{3-fluoro-4-[(4-hydroxy-4-methylcyclohexyl)oxy]phenyl}-2-oxopyridin-1(2H)-yl]-N-hydroxy-2-methyl-2-(methylsulfonyl)butanamide] | 0.5 mg/L | 2 mg/L | > 64 mg/L
13 | CC(C)(O)COc1ccc(-c2ccn(CCC(C)(C(=O)NO)S(C)(=O)=O)c(=O)c2)cc1 (stereo not drawn) [Example 10-J, N-hydroxy-4-{4-[4-(2-hydroxy-2-methylpropoxy)phenyl]-2-oxopyridin-1(2H)-yl}-2-methyl-2-(methylsulfonyl)butanamide] | 4 mg/L | 8 mg/L | > 64 mg/L
14 | CC(C)(O)C(O)CCOc1ccc(-c2ccn(CC[C@](C)(C(=O)NO)S(C)(=O)=O)c(=O)c2)cc1 (stereo partly drawn) [Example 10-K, (2R)-4-[4-{4-[(3,4-dihydroxy-4-methylpentyl)oxy]phenyl}-2-oxopyridin-1(2H)-yl]-N-hydroxy-2-methyl-2-(methylsulfonyl)butanamide] | 8 mg/L | 8 mg/L | > 64 mg/L
15 | C[C@@](CCn1ccc(-c2ccc(OC[C@H]3CC[C@@H](O)CC3)cc2F)cc1=O)(C(=O)NO)S(C)(=O)=O [Example 10-L, (2R)-4-[4-{2-fluoro-4-[(cis-4-hydroxycyclohexyl)methoxy]phenyl}-2-oxopyridin-1(2H)-yl]-N-hydroxy-2-methyl-2-(methylsulfonyl)butanamide] | 0.25 mg/L | 1 mg/L | > 64 mg/L
16 | C[C@@](CCn1ccc(-c2ccccc2)cc1=O)(C(=O)NO)S(C)(=O)=O [Example 11, (2R)-N-Hydroxy-2-methyl-2-(methylsulfonyl)-4-(2-oxo-4-phenylpyridin-1(2H)-yl)butanamide] | 8 mg/L | 1 mg/L | 64 mg/L
17 | Cc1c(O)ccc(-c2ccn(CC[C@](C)(C(=O)NO)S(C)(=O)=O)c(=O)c2)c1F [Example 12, (2R)-4-[4-(2-fluoro-4-hydroxy-3-methylphenyl)-2-oxopyridin-1(2H)-yl]-N-hydroxy-2-methyl-2-(methylsulfonyl)butanamide] | 16 mg/L | 16 mg/L | > 64 mg/L
18 | Cc1ccc(-c2ccn(CC[C@](C)(C(=O)NO)S(C)(=O)=O)c(=O)c2)c(F)c1 [Example 13, (2R)-4-[4-(2-fluoro-4-methylphenyl)-2-oxopyridin-1(2H)-yl]-N-hydroxy-2-methyl-2-(methylsulfonyl)butanamide] | 0.5 mg/L | 0.5 mg/L | > 64 mg/L
19 | C[C@@](CCn1ccc(-c2cccc(F)c2F)cc1=O)(C(=O)NO)S(C)(=O)=O [Example 14, (2R)-4-[4-(2,3-difluorophenyl)-2-oxopyridin-1(2H)-yl]-N-hydroxy-2-methyl-2-(methylsulfonyl)butanamide] | 0.5 mg/L | 0.5 mg/L | > 64 mg/L
20 | C[C@@](CCn1ccc(-c2ccc(Cl)cc2)cc1=O)(C(=O)NO)S(C)(=O)=O [Example 15, (2R)-4-[4-(4-chlorophenyl)-2-oxopyridin-1(2H)-yl]-N-hydroxy-2-methyl-2-(methylsulfonyl)butanamide] | 0.5 mg/L | 0.5 mg/L | > 64 mg/L
21 | Cc1ccc(-c2ccn(CC[C@](C)(C(=O)NO)S(C)(=O)=O)c(=O)c2)cc1 [Example 16, (2R)-N-hydroxy-2-methyl-4-[4-(4-methylphenyl)-2-oxopyridin-1(2H)-yl]-2-(methylsulfonyl)butanamide] | 0.5 mg/L | 0.5 mg/L | > 64 mg/L
22 | COc1ccc(-c2ccn(CC[C@](C)(C(=O)NO)S(C)(=O)=O)c(=O)c2)cc1 [Example 17, (2R)-N-hydroxy-4-[4-(4-methoxyphenyl)-2-oxopyridin-1(2H)-yl]-2-methyl-2-(methylsulfonyl)butanamide] | 0.5 mg/L | 0.5 mg/L | > 64 mg/L
23 | C[C@@](CCn1ccc(-c2ccc3c(c2)OCCO3)cc1=O)(C(=O)NO)S(C)(=O)=O [Example 18, (2R)-4-[4-(2,3-dihydro-1,4-benzodioxin-6-yl)-2-oxopyridin-1(2H)-yl]-N-hydroxy-2-methyl-2-(methylsulfonyl)butanamide] | > 64 mg/L | 1 mg/L | > 64 mg/L
24 | Cc1cc2cc(-c3ccn(CC[C@](C)(C(=O)NO)S(C)(=O)=O)c(=O)c3)ccc2[nH]1 [Example 19, (2R)-N-hydroxy-2-methyl-4-[4-(2-methyl-1H-indol-5-yl)-2-oxopyridin-1(2H)-yl]-2-(methylsulfonyl)butanamide] | 1 mg/L | 2 mg/L | > 64 mg/L
